Laboratory results published in patent publication US10202368B2, “CXCR7 receptor modulators” (IDORSIA PHARMACEUTICALS LTD, priority 2014, dated 2019).

target: CXCR7 (Homo sapiens (Human), UniProt P25106); experiment: PathHunter CHO-K1 CXCR7 β-arrestin assay (agonistic activity); type: cell-based; conditions: β-arrestin recruitment in PathHunter CHO-K1 CXCR7 β-arrestin cells, 90 minutes at 37° C., geometric mean values
Method in brief: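 The enzyme-fragment complementation format pairs ProLink-tagged CXCR7 with EA–β-arrestin 2 in CHO-K1 cells, seeded at 5000/well for 24 h and serum-starved in OPTIMEM 3–4 h. Compounds were added in HBSS/20 mM HEPES/0.2% BSA for 90 min at 37 °C, followed by 1 h detection at room temperature and chemiluminescence read-out. EC50 is the geometric mean of several measurements.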

Sequence of CXCR7 (P25106 whole entry, the tested form may be a part): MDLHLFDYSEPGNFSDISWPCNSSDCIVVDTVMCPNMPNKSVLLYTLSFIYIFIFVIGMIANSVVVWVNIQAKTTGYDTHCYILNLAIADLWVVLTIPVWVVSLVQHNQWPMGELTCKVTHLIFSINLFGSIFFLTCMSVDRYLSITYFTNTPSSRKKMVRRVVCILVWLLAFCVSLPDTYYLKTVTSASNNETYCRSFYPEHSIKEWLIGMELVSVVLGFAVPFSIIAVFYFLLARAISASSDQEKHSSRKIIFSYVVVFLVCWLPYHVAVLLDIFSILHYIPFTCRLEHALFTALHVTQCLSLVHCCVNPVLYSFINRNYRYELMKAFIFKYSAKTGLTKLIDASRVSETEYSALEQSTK
Sequence of CXCR7 (P32121 whole entry partner, the tested form may be a part): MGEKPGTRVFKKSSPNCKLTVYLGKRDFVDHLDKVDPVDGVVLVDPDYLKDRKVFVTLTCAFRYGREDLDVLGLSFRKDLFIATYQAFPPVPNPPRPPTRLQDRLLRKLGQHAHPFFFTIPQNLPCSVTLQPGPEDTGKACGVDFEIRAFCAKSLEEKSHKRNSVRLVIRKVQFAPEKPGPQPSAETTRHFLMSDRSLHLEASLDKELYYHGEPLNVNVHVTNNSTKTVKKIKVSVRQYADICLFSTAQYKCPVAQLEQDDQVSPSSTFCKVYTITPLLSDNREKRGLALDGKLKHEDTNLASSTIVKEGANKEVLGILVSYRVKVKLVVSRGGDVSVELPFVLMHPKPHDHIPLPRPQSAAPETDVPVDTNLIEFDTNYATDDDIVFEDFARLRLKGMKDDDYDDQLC

Row | SMILES | EC50
1 | CCN1CCOc2c(cccc2NCC(=O)N(CCN(C)C)Cc2ncccc2C)C1 [Example 73, N-(2-Dimethylamino-ethyl)-2-(4-ethyl-2,3,4,5-tetrahydro-benzo[f][1,4]oxazepin-9-ylamino)-N-(3-methyl-pyridin-2-ylmethyl)-acetamide] | 59 nM
2 | CCN1CCOc2c(cccc2NCC(=O)N(CCN2CCCC2)Cc2ncccc2C(F)(F)F)C1 [Example 74, 2-(4-Ethyl-2,3,4,5-tetrahydro-benzo[f][1,4]oxazepin-9-ylamino)-N-(2-pyrrolidin-1-yl-ethyl)-N-(3-trifluoromethyl-pyridin-2-ylmethyl)-acetamide] | 5 nM
3 | CCN1CCOc2c(cccc2NCC(=O)N(CCN2CCCC2)Cc2ncccc2Cl)C1 [Example 75, N-(3-Chloro-pyridin-2-ylmethyl)-2-(4-ethyl-2,3,4,5-tetrahydro-benzo[f][1,4]oxazepin-9-ylamino)-N-(2-pyrrolidin-1-yl-ethyl)-acetamide] | 19 nM
4 | CCN1CCOc2c(cccc2NCC(=O)N(CCN(C)C)Cc2cnc(C(F)(F)F)s2)C1 [Example 76, N-(2-Dimethylamino-ethyl)-2-(4-ethyl-2,3,4,5-tetrahydro-benzo[f][1,4]oxazepin-9-ylamino)-N-(2-trifluoromethyl-thiazol-5-ylmethyl)-acetamide] | 430 nM
5 | CCN1CCOc2c(cccc2NCC(=O)N(CCN(C)C)Cc2c(C(F)(F)F)nn(C)c2Cl)C1 [Example 77, N-(5-Chloro-1-methyl-3-trifluoromethyl-1H-pyrazol-4-ylmethyl)-N-(2-dimethylamino-ethyl)-2-(4-ethyl-2,3,4,5-tetrahydro-benzo[f][1,4]oxazepin-9-ylamino)-acetamide] | 280 nM
6 | CCN1CCOc2c(cccc2NCC(=O)N(CCN(C)C(=O)OC(C)(C)C)Cc2ncccc2Cl)C1 [Example 78, (2-{(3-Chloro-pyridin-2-ylmethyl)-[2-(4-ethyl-2,3,4,5-tetrahydro-benzo[f][1,4]oxazepin-9-ylamino)-acetyl]-amino}-ethyl)-methyl-carbamic acid tert-butyl ester] | 240 nM
7 | O=C(CNc1cccc2c1OCCN(CC1CC1)C2)N(CCN1CCCC1)Cc1ncccc1C(F)(F)F [Example 82, 2-(4-Cyclopropylmethyl-2,3,4,5-tetrahydro-benzo[f][1,4]oxazepin-9-ylamino)-N-(2-pyrrolidin-1-yl-ethyl)-N-(3-trifluoromethyl-pyridin-2-ylmethyl)-acetamide] | 2 nM
8 | CC(C)(C)NCCN(Cc1ccccc1C(F)(F)F)C(=O)CNc1cccc2c1OCCN(CC1CC1)C2 [Example 83, N-(2-tert-Butylamino-ethyl)-2-(4-cyclopropylmethyl-2,3,4,5-tetrahydro-benzo[f][1,4]oxazepin-9-ylamino)-N-(2-trifluoromethyl-benzyl)-acetamide] | 3 nM
9 | CN(C)CCN(Cc1ccccc1C(F)(F)F)C(=O)CNc1cccc2c1OCCN(CC1CC1)C2 [Example 84, 2-(4-Cyclopropylmethyl-2,3,4,5-tetrahydro-benzo[f][1,4]oxazepin-9-ylamino)-N-(2-dimethylamino-ethyl)-N-(2-trifluoromethyl-benzyl)-acetamide] | 4 nM
10 | CC(C)NCCN(Cc1ccccc1C(F)(F)F)C(=O)CNc1cccc2c1OCCN(CC1CC1)C2 [Example 85, 2-(4-Cyclopropylmethyl-2,3,4,5-tetrahydro-benzo[f][1,4]oxazepin-9-ylamino)-N-(2-isopropylamino-ethyl)-N-(2-trifluoromethyl-benzyl)-acetamide] | 3 nM
11 | CN(C)CCN(Cc1ccccc1Cl)C(=O)CNc1cccc2c1CN(CC1CC1)CCO2 [Example 86, N-(2-Chloro-benzyl)-2-(4-cyclopropylmethyl-2,3,4,5-tetrahydro-benzo[f][1,4]oxazepin-6-ylamino)-N-(2-dimethylamino-ethyl)-acetamide] | 14 nM
12 | Cc1cccnc1CN(CCN(C)C)C(=O)CNc1cccc2c1CN(CC1CC1)CCO2 [Example 87, 2-(4-Cyclopropylmethyl-2,3,4,5-tetrahydro-benzo[f][1,4]oxazepin-6-ylamino)-N-(2-dimethylamino-ethyl)-N-(3-methyl-pyridin-2-ylmethyl)-acetamide] | 23 nM
13 | CN(C)CCN(Cc1cccc(Cl)c1Cl)C(=O)CNc1cccc2c1CN(CC1CC1)CCO2 [Example 88, 2-(4-Cyclopropylmethyl-2,3,4,5-tetrahydro-benzo[f][1,4]oxazepin-6-ylamino)-N-(2,3-dichloro-benzyl)-N-(2-dimethylamino-ethyl)-acetamide] | 15 nM
14 | CC(C)NCCN(Cc1ccccc1C(F)(F)F)C(=O)CNc1cccc2c1CN(CC1CC1)CCO2 [Example 89, 2-(4-Cyclopropylmethyl-2,3,4,5-tetrahydro-benzo[f][1,4]oxazepin-6-ylamino)-N-(2-isopropylamino-ethyl)-N-(2-trifluoromethyl-benzyl)-acetamide] | 5 nM
15 | CC(C)NCCN(Cc1ncccc1C(F)(F)F)C(=O)CNc1cccc2c1CN(CC1CC1)CCO2 [Example 90, 2-(4-Cyclopropylmethyl-2,3,4,5-tetrahydro-benzo[f][1,4]oxazepin-6-ylamino)-N-(2-isopropylamino-ethyl)-N-(3-trifluoromethyl-pyridin-2-ylmethyl)-acetamide] | 7 nM
16 | CC(C)(C)NCCN(Cc1ccccc1Cl)C(=O)CNc1cccc2c1CN(CC1CC1)CCO2 [Example 91, N-(2-tert-Butylamino-ethyl)-N-(2-chloro-benzyl)-2-(4-cyclopropylmethyl-2,3,4,5-tetrahydro-benzo[f][1,4]oxazepin-6-ylamino)-acetamide] | 8 nM
17 | CC(C)(C)NCCN(Cc1ncccc1Cl)C(=O)CNc1cccc2c1CN(CC1CC1)CCO2 [Example 92, N-(2-tert-Butylamino-ethyl)-N-(3-chloro-pyridin-2-ylmethyl)-2-(4-cyclopropylmethyl-2,3,4,5-tetrahydro-benzo[f][1,4]oxazepin-6-ylamino)-acetamide] | 10 nM
18 | CC(C)(C)NCCN(Cc1ccccc1C(F)(F)F)C(=O)CNc1cccc2c1CN(CC1CC1)CCO2 [Example 93, N-(2-tert-Butylamino-ethyl)-2-(4-cyclopropylmethyl-2,3,4,5-tetrahydro-benzo[f][1,4]oxazepin-6-ylamino)-N-(2-trifluoromethyl-benzyl)-acetamide] | 3 nM
19 | CC(C)(C)NCCN(Cc1ncccc1C(F)(F)F)C(=O)CNc1cccc2c1CN(CC1CC1)CCO2 [Example 94, N-(2-tert-Butylamino-ethyl)-2-(4-cyclopropylmethyl-2,3,4,5-tetrahydro-benzo[f][1,4]oxazepin-6-ylamino)-N-(3-trifluoromethyl-pyridin-2-ylmethyl)-acetamide] | 4 nM
